Test results from PMC10331597 (Redox Biology, 2023).

Molecular target: Keap1 (Homo sapiens, UniProt Q14145)
Assay: Fluorescence anisotropy assay
Type: binding
Conditions: for Kd: Keap1-Nrf2 binding affinity, fluorescence anisotropy assay, duplicated experiment, average; for activity in Keap1-Nrf2 fluorescence anisotropy assay: at 10 μM

Chain of Keap1 (Q14145 whole entry): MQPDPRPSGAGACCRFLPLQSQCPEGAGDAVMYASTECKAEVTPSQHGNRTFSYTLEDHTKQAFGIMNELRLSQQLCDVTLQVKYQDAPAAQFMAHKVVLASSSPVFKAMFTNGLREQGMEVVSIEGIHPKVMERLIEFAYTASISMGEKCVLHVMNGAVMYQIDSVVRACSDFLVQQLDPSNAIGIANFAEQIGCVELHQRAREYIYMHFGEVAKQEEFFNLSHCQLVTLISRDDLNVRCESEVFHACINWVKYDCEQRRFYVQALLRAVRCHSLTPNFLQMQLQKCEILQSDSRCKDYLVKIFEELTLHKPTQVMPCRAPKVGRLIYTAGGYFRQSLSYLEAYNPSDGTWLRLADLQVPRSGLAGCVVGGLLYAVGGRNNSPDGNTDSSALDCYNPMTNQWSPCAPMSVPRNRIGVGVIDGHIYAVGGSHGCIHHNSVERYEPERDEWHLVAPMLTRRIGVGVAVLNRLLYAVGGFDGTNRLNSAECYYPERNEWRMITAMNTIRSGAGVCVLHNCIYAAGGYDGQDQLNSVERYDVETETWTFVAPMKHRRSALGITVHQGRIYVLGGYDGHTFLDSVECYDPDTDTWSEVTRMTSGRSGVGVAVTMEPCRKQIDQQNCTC

Structure (SMILES)	Kd	activity in Keap1-Nrf2 fluorescence anisotropy assay
COc1ccc(S(=O)(=O)N(CC(N)=O)c2ccc(N(CC(N)=O)S(=O)(=O)c3sc4ccc(Cl)cc4c3C)c3ccccc23)cc1 [Compound A13, 2-((N-(4-((N-(2-amino-2-oxoethyl)-4-methoxyphenyl)sulfonamido)naphthalen-1-yl)-5-chloro-3-methylbenzo[b]thiophene)-2-sulfonamido)acetamide]	> 10000 nM	did not show apparent activity
COc1ccc(S(=O)(=O)N(CC(N)=O)c2ccc(N(CC(N)=O)S(=O)(=O)c3ccc(Cl)nc3)c3ccccc23)cc1 [Compound A5, 2-((N-(4-((N-(2-amino-2-oxoethyl)-4-methoxyphenyl)sulfonamido)naphthalen-1-yl)-6-chloropyridine)-3-sulfonamido)acetamide]	> 10000 nM	did not show apparent activity
COc1ccc(S(=O)(=O)N(CC(N)=O)c2ccc(N(CC(N)=O)S(=O)(=O)c3ccc4c(c3)CCO4)c3ccccc23)cc1 [Compound A11, 2-((N-(4-((N-(2-amino-2-oxoethyl)-2,3-dihydrobenzofuran)-5-sulfonamido)naphthalen-1-yl)-4-methoxyphenyl)sulfonamido)acetamide]	1280 nM	–
COc1ccc(S(=O)(=O)N(CC(N)=O)c2ccc(N(CC(N)=O)S(=O)(=O)c3sc(N(CC(N)=O)C(C)=O)nc3C)c3ccccc23)cc1 [Compound A7, N-(2-amino-2-oxoethyl)-N-(5-(N-(2-amino-2-oxoethyl)-N-(4-((N-(2-amino-2-oxoethyl)-4-methoxy-phenyl)sulfonamido)naphthalen-1-yl)sulfamoyl)-4-methylthiazol-2-yl)acetamide]	1430 nM	–
COc1ccc(S(=O)(=O)N(CC(N)=O)c2ccc(N(CC(N)=O)S(=O)(=O)c3cn(C)cn3)c3ccccc23)cc1 [Compound A8, 2-((N-(4-((N-(2-amino-2-oxoethyl)-1-methyl-1H-imidazole)-4-sulfonamido)naphthalen-1-yl)-4-methoxyphenyl)sulfonamido)acetamide]	1150 nM	–
COc1ccc(S(=O)(=O)N(CC(N)=O)c2ccc(N(CC(N)=O)S(=O)(=O)N3CCOCC3)c3ccccc23)cc1 [Compound A6, 2-(N-(4-((N-(2-amino-2-oxoethyl)-4-methoxyphenyl)sulfonamido)naphthalen-1-yl)morpholine-4-sulfonamido)acetamide]	2070 nM	–
COc1ccc(S(=O)(=O)N(CC(N)=O)c2ccc(N(CC(N)=O)S(=O)(=O)c3cccc4ccccc34)c3ccccc23)cc1 [Compound A1, 2-(N-(4-((N-(2-amino-2-oxoethyl)-4-methoxyphenyl)sulfonamido)naphthalen-1-yl)naphthalene-1-sulfonamido)acetamide]	> 10000 nM	did not show apparent activity
COc1ccc(S(=O)(=O)N(CC(N)=O)c2ccc(N(CC(N)=O)S(=O)(=O)c3ccc(-c4ccccc4)cc3)c3ccccc23)cc1 [Compound A3, 2-(N-(4-((N-(2-amino-2-oxoethyl)-4-methoxyphenyl)sulfonamido)naphthalen-1-yl)-[1,1'-biphenyl]-4-sulfonamido)acetamide]	> 10000 nM	did not show apparent activity
COc1ccc(S(=O)(=O)N(CC(N)=O)c2ccc(N(CC(N)=O)S(=O)(=O)c3cnn(C)c3)c3ccccc23)cc1 [Compound A9, 2-((N-(4-((N-(2-amino-2-oxoethyl)-1-methyl-1H-pyrazole)-4-sulfonamido)naphthalen-1-yl)-4-methoxyphenyl)sulfonamido)acetamide]	1140 nM	–
COc1ccc(S(=O)(=O)N(CC(N)=O)c2ccc(N(CC(N)=O)S(=O)(=O)c3cccs3)c3ccccc23)cc1 [Compound A4, 2-(N-(4-((N-(2-amino-2-oxoethyl)-4-methoxyphenyl)sulfonamido)naphthalen-1-yl)thiophene-2-sulfonamido)acetamide]	1110 nM	–
COc1ccc(S(=O)(=O)N(CC(N)=O)c2ccc(N(CC(N)=O)S(=O)(=O)c3c(C)c(C)c4c(c3C)CC(C)(C)O4)c3ccccc23)cc1 [Compound A10, 2-((N-(4-((N-(2-amino-2-oxoethyl)-2,2,4,6,7-pentamethyl-2,3-dihydrobenzofuran)-5-sulfonamido)naphthalen-1-yl)-4-methoxyphenyl)sulfonamido)acetamide]	3270 nM	–
COc1ccc(S(=O)(=O)N(CC(N)=O)c2ccc(N(CC(N)=O)S(=O)(=O)c3c(C)noc3C)c3ccccc23)cc1 [Compound A12, 2-((N-(4-((N-(2-amino-2-oxoethyl)-3,5-dimethylisoxazole)-4-sulfonamido)naphthalen-1-yl)-4-methoxyphenyl)sulfonamido)acetamide]	> 10000 nM	did not show apparent activity
COc1ccc(S(=O)(=O)N(CC(N)=O)c2ccc(N(CC(N)=O)S(=O)(=O)c3ccc4ccccc4c3)c3ccccc23)cc1 [Compound A2, 2-(N-(4-((N-(2-amino-2-oxoethyl)-4-methoxyphenyl)sulfonamido)naphthalen-1-yl)naphthalene-2-sulfonamido)acetamide]	1300 nM	–
